Experimental data: PubChem BioAssay (NCI)
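The compound was tested at five concentrations on cells cultured in 96-well plates, with a 48-hour exposure period. GI50: concentration for 50% inhibition of growth. TGI: total growth inhibition.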

Experiments:
Assay in all cases: inhibition of tumour cell growth, NCI panel, 48 h
OVCAR-8 ovarian = system: OVCAR-8 ovarian
EKVX NSCLC = system: EKVX NSCLC
HOP-62 NSCLC = system: HOP-62 NSCLC
SK-MEL-2 melanoma = system: SK-MEL-2 melanoma
HCT-15 colon = system: HCT-15 colon
UACC-62 melanoma = system: UACC-62 melanoma
HCC-2998 colon = system: HCC-2998 colon
SF-268 CNS = system: SF-268 CNS
RXF 393 renal = system: RXF 393 renal

| Compound | GI50 (OVCAR-8 ovarian) | TGI (OVCAR-8 ovarian) | GI50 (EKVX NSCLC) | TGI (EKVX NSCLC) | GI50 (HOP-62 NSCLC) | TGI (HOP-62 NSCLC) | GI50 (SK-MEL-2 melanoma) | TGI (SK-MEL-2 melanoma) | GI50 (HCT-15 colon) | TGI (HCT-15 colon) | GI50 (UACC-62 melanoma) | TGI (UACC-62 melanoma) | GI50 (HCC-2998 colon) | TGI (HCC-2998 colon) | GI50 (SF-268 CNS) | TGI (SF-268 CNS) | GI50 (RXF 393 renal) | TGI (RXF 393 renal) |
| --- | --- | --- | --- | --- | --- | --- | --- | --- | --- | --- | --- | --- | --- | --- | --- | --- | --- | --- |
| CC1=C(C#N)C(/C=C(\Cl)c2ccc(F)cc2)C(C#N)=C(C)N1 | > 100 µM | > 100 µM | > 100 µM | > 100 µM | > 100 µM | > 100 µM | > 100 µM | > 100 µM | > 100 µM | > 100 µM | 81 µM | > 100 µM | > 100 µM | > 100 µM | > 100 µM | > 100 µM | > 100 µM | > 100 µM |
| C/C(O)=C(\N=O)C(=O)NCc1ccccc1 |  | > 100 µM |  | > 100 µM |  | > 100 µM |  | > 100 µM |  | > 100 µM |  | > 100 µM |  | > 100 µM |  | > 100 µM |  | > 100 µM |
| CCOC(=O)C1=C(C(=O)OCC)C2(c3ccccc3)N(O1)c1ccccc1C2(C)C (stereo not given) |  | > 100 µM |  | > 100 µM |  | > 100 µM |  | > 100 µM |  |  |  | > 100 µM |  | > 100 µM |  | > 100 µM |  | > 100 µM |
| COc1ccc(-c2nc(N)c(C#N)c3c2CCOc2c-3ccc3ccccc23)cc1 | 23.3 µM | 58 µM |  |  | 20.8 µM | 49.7 µM | 36.8 µM | > 100 µM | 59.4 µM | > 100 µM |  |  | 56.1 µM | > 100 µM | 11.1 µM | 39.8 µM | 1.6 µM | 31.1 µM |
| Cc1ccc(O)c(NC2=C(Cl)C(=O)N(Cc3ccccc3)C2=O)c1 | 18.3 µM | 39.3 µM | 35.9 µM | > 100 µM | 25.4 µM | 72.5 µM | 19 µM | 39 µM | 25.3 µM | 72.6 µM | 17 µM | 36.8 µM |  |  | 18.8 µM | 47.1 µM | 15 µM | 39.3 µM |
| COc1cc(NC(C)CCCNC(C)C)c2ncccc2c1OC (stereo not given) | > 100 µM | > 100 µM | 36.4 µM | > 100 µM | > 100 µM | > 100 µM |  |  | > 100 µM | > 100 µM | > 100 µM | > 100 µM | > 100 µM | > 100 µM | > 100 µM | > 100 µM | > 100 µM | > 100 µM |
| C[C@H](NC(=O)c1c(C(F)F)nn(C)c1Oc1cccc(C(F)(F)F)c1)c1ccc(C(=O)O)cc1 | > 100 µM | > 100 µM | > 100 µM | > 100 µM | > 100 µM | > 100 µM | > 100 µM | > 100 µM | > 100 µM | > 100 µM | > 100 µM | > 100 µM | > 100 µM | > 100 µM | > 100 µM | > 100 µM |  |  |
| COc1ccc2[nH]c(C(=O)OCc3ccc4cccc(O)c4n3)cc2c1 | 1.38 µM | 4.04 µM | 1.51 µM | 2.89 µM | 1.52 µM | 3.5 µM | 1.74 µM | 3.72 µM | 0.757 µM | 3.18 µM | 1.31 µM | 2.6 µM | 1.43 µM | 2.92 µM | 1.65 µM | 3.13 µM | 1.06 µM | 2.31 µM |
| COc1ccc(-c2nsc3c2NC(=O)CC3c2cccc(Cl)c2)cc1 (stereo not given) | 4.35 µM | > 100 µM |  |  | 4.04 µM | 98.1 µM | 0.878 µM | 9.93 µM | 0.646 µM | > 100 µM | 2.31 µM | > 100 µM | 11.5 µM | > 100 µM | 8.04 µM | > 100 µM | 2.57 µM | 33 µM |
| Nc1nc2c(ccc3ccccc32)s1 | > 100 µM | > 100 µM | 40.5 µM | > 100 µM | > 100 µM | > 100 µM |  |  | > 100 µM | > 100 µM | 75.8 µM | > 100 µM | 50.6 µM | > 100 µM | 33.2 µM | > 100 µM | 37.2 µM | > 100 µM |
| COc1cc(C2c3cc4c(cc3[C@@H](N(C)c3ccc(N(C)C)cc3)C3COC(=O)C23)OCO4)cc(OC)c1O (stereo not given in full) |  | > 59.8 µM |  | 44.2 µM |  | > 100 µM |  | 16.9 µM |  | 25.7 µM |  | 23.1 µM |  | 20.8 µM |  | 6.85 µM |  |  |
| O=C([CH-]C(=O)c1ccccc1)c1ccccc1.O=C([CH-]C(=O)c1ccccc1)c1ccccc1.O=C([CH-]C(=O)c1ccccc1)c1ccccc1.[Cl-].[Zr+4] |  |  | 4.03 µM | 26.8 µM | 20.1 µM | 75.5 µM | 10 µM | 41.2 µM | 18.2 µM | > 100 µM | 20.3 µM | 91.2 µM |  |  | 15.8 µM | > 100 µM | 15 µM | 71.9 µM |
| Cc1cccc(Nc2cc(Cl)nc(SCC(=O)O)n2)c1C |  | > 100 µM |  | > 100 µM |  | > 100 µM |  | > 100 µM |  | > 100 µM |  | > 100 µM |  |  |  |  |  | > 100 µM |
| O=C(NC(=O)c1cn(CCN2CCN(C(=O)NCCCCCCNC(=O)N3CCN(CCn4cc(C(=O)NC(=O)OCc5ccccc5)c(=O)[nH]c4=O)CC3)CC2)c(=O)[nH]c1=O)OCc1ccccc1 |  | > 100 µM |  | > 100 µM |  | > 100 µM |  |  |  | > 100 µM |  | > 100 µM |  |  |  |  |  | > 100 µM |
| S=C(CSc1ccccc1)Nc1cccc2ccccc12 |  | > 100 µM |  | > 100 µM |  | > 100 µM |  | 74.5 µM |  | > 100 µM |  | > 100 µM |  |  |  | > 100 µM |  | > 100 µM |
| C1CC2=C(C1)C1=S(S2)SC2=C1CCC2 |  | > 100 µM |  | > 100 µM |  |  |  | > 100 µM |  | > 100 µM |  | > 100 µM |  | > 100 µM |  | > 100 µM |  | > 100 µM |
| COc1cc2nc(-c3cccc4cccnc34)nc(NC3CCN(Cc4ccccc4)CC3)c2cc1OC | 0.647 µM | 2.64 µM | 1.48 µM | 3.3 µM | 1.23 µM | 3.05 µM | 1.68 µM | 3.53 µM | 1.11 µM | 2.43 µM | 2 µM | 4.02 µM | 1.72 µM | 3.16 µM | 1.14 µM | 2.98 µM |  |  |
| CC12OC(C(=O)C13CCC3)C1C(=O)c3ccc4c(ccc5ccccc54)c3C(=O)C12 (stereo not given) | 6.49 µM | > 100 µM | 20.7 µM | 63.7 µM | 25.2 µM | 53.4 µM | 19.4 µM | > 100 µM | 4.27 µM | 22.4 µM | 35.4 µM | > 100 µM |  |  | 11.6 µM | 32.9 µM | 13.3 µM | 30.3 µM |
